Like-named read-outs stand apart in the source and are kept apart here.

The test system of one data set is K562/P-gp leukemia. Kind of data set: In vivo efficacy in reversing DOX resistance in human leukemia K562/P-gp model. Also noted: species or system NOD/SCID mice. Here is the method:
(§1) Irradiated BDF1 mice were i.p. inoculated with P388ADR cells, which caused mouse leukemia. Irradiated NOD/SCID mice were i.v. inoculated with K562/P-gp cells, which caused human leukemia. The mice were randomized and treated with (1) control treatment (no treatment), (2) DOX alone, and (3) EC31 + DOX. Treatments were given as indicated by the arrows. The number of mice deaths in each treatment group was recorded every day. (A) The percent survival of mice infected with P388ADR. (B) The percent survival of mice infected with K562/P-gp. The mice median survival days and the increased lifespan (ILS) were analyzed with Log-rank (Mantel–COX) test in Prism 5.0. Student’s paired t test was conducted as indicated. ** represents p < 0.01, and *** represents p < 0.001. N.S. = not significant.
The mice were randomly distributed into 3 groups: (1) control group (no treatment), (2) DOX (0.9 mg/kg i.v.) alone, and (3) cotreatment with EC31 (30 mg/kg i.p.) being injected 1 h prior to DOX (0.9 mg/kg i.v.) administration. EC31 and DOX were injected on days 7, 11, 19, 23, and 27. Before each treatment, 0.2 mg/mL of DOX was freshly prepared using PBS. Mice survival and body weight were monitored during the study period.

Data set [1] is described as follows: In vivo toxicity study of EC31 alone and combined with PTX. As to conditions: q2d x 12. As for the experimental part: (A) In vivo toxicity study of EC31 alone and of its combination with PTX was conducted. BALB/c mice were randomized into five groups with five mice in each group. Body weight of BALB/c mice during treatments was measured every two days. The treatment groups included (1) solvent control (5% NMP + 5% Cremophor EL + 90% PBS to dissolve EC31 and 5% Ethanol + 5% Cremophor EL + 90% PBS to dissolve PTX), (2) PTX (12 mg/kg i.v.), (3) EC31 (30 mg/kg i.p.), (4) EC31 (30 mg/kg i.p.) + PTX (12 mg/kg i.v.), or (5) EC31 (60 mg/kg i.p.) + PTX (12 mg/kg i.v.). The administration was performed every other day 12 times (q2d x 12). The loss of body weight or appetite and treatment-related mortality were monitored and defined as toxicity. (B) BALB/c nude mice were subcutaneously xenografted with LCC6MDR. When the tumor reached 150–300 mm^3, the mice were randomized and administered once with (1) EC31 alone, (2) PTX alone, or (3) EC31 + PTX. […] The tumors were taken out, and their weights were measured. Intratumor concentration of EC31 or PTX was measured using UPLC-MS/MS, and the actual concentration of PTX or EC31 was normalized to the tumor weight. […] Tumor volume and body weight were monitored throughout the treatment period. […] The tumor volume, tumor weight, and doubling time were measured. The number of animal deaths was recorded during the treatment period. […]

In data set [2] the target is T1, P-gp (Homo sapiens, UniProt P08183). Briefly: EC50 for reversing drug resistance in LCC6MDR cells (cell proliferation assay). To be noted: for EC50: EC50 for Reversing MDR, LCC6MDR.
Excerpt: (§2) EC50 was defined as the concentration at which the modulator can reduce the IC50 of an anticancer drug by half in the P-gp-overexpressing cell lines. […] The P-gp-modulating activity of methylated catechin derivatives was further studied by measuring the EC50. […] Three P-gp-overexpressing cell lines were employed, including breast cancer cell line LCC6MDR, mouse leukemia cell line P388ADR, and human leukemia cell line K562/P-gp. The anticancer drugs tested included DOX, PTX, and VCR. All values were presented as mean ± standard error of mean. N = 3–6 independent experiments.
(§3) About 6500 cells of LCC6MDR or 10,000 cells of P388ADR or K562/P-gp were seeded to each well of 96-well plate and were then incubated at 37 °C overnight. […] Cell viability was determined using CellTiter 96 AQueous Assay (Promega, Madison, WI, USA, #G1111) as reported previously [38]. The % of cell survival, IC50 of anticancer drugs towards the cell line, and EC50 of modulators were analyzed using nonlinear regression in Prism 5.0.
Another data set concerns P388ADR leukemia. Briefly: In vivo efficacy in reversing DOX resistance in murine leukemia P388ADR model. Also noted: species or system B6D2F1 mice. Here is the method: as §1
About 1 × 10^6 cells of P388ADR were i.p. inoculated in male B6D2F1 mice aged 5–7 weeks old. There were 3 groups: (1) control group with no treatment, (2) DOX (3 mg/kg i.p.) alone, and (3) cotreatment with EC31 (60 mg/kg i.p.) being injected 1 h prior to DOX (3 mg/kg i.p.) administration. In group 2, DOX was i.p. injected on days 2, 6, 10, 14, and 18 only. In group 3, EC31 was i.p. injected on days 1, 2, 5, 6, 9, 10, 13, 14, 17, and 18, and DOX was i.p. injected on days 2, 6, 10, 14, and 18. Before each treatment, 1.5 mg/mL of DOX was freshly prepared using PBS. Mice survival and body weight were monitored during the study period.

Data set [3] deals with T1, P-gp. Kind of data set: Intracellular EC31 or PTX accumulation in LCC6 versus LCC6MDR cells. Type of data set: cell-based. As to conditions: from accumulation and efflux in cells with or without P-gp. Set-up: expressed in transfected cells; host or cells: MDA435/LCC6MDR (human breast cancer line, gift of Dr. Robert Clarke). The source says:
N = 3 independent experiments.

Data set [4] deals with P-gp. Briefly: EC50 for reversing drug resistance in P388ADR cells (cell proliferation assay).
Excerpt: as §2, §3
The mark [5] stands for this setting: EC31 30 mg/kg i.p. + DOX 0.9 mg/kg i.v.

T1 sequence (P08183 whole entry): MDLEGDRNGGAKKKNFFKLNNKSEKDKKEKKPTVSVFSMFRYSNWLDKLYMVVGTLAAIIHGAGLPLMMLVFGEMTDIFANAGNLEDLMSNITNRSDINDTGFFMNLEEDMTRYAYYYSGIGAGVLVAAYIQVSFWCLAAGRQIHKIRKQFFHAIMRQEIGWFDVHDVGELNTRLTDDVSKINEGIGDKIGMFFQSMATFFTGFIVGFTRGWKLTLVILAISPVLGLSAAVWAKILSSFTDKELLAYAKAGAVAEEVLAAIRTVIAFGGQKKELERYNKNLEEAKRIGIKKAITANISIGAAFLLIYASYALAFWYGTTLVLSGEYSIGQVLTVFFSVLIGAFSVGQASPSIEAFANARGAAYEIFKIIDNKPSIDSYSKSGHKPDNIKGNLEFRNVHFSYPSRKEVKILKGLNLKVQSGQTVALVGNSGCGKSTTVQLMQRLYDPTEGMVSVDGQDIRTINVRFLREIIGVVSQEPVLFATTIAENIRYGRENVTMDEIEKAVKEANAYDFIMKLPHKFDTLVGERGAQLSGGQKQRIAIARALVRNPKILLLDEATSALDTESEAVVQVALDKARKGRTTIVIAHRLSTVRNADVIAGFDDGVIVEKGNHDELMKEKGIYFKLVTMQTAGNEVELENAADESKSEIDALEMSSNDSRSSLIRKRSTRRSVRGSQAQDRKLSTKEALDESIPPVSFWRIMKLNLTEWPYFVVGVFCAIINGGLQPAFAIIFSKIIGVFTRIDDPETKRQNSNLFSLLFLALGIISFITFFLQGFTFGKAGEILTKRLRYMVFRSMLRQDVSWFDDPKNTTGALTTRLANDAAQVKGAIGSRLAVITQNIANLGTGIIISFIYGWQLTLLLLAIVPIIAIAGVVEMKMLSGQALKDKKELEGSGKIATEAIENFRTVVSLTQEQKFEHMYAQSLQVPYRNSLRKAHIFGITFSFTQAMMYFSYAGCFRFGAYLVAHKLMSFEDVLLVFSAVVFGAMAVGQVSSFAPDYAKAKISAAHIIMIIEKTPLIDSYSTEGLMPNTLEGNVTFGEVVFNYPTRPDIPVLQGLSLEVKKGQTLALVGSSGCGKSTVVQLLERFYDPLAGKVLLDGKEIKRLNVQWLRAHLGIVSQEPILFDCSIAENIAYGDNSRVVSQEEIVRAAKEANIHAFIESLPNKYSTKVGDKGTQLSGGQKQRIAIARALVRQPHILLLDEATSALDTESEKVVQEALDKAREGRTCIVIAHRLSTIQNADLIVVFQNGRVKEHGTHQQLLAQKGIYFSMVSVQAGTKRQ

For the compound `COc1cc(OC)c2c(c1)O[C@H](c1ccc(OC)c(OC)c1)[C@H](OC(=O)c1ccc(F)c(NC(=O)c3cc(OC)c(OC)c(OC)c3)c1)C2` [EC31], the median survival time with K562/P-gp leukemia (setting [5]) was 37.0 days. Also, in the data set on K562/P-gp leukemia (setting [5]), the “prolongation of animal survival compared to DOX alone” value came out at 5 days. Also, the “ILS% (increase in lifespan)” value in the data set with K562/P-gp leukemia (EC31 30 mg/kg i.p. + DOX 0.9 mg/kg i.v. compared to DOX alone) came to 15.6%; in the data set on P388ADR leukemia (EC31 60 mg/kg i.p. + DOX 3 mg/kg i.p. compared to DOX alone), 30.3%. The “mortality or toxicity symptoms” value in data set [1] (EC31 30 mg/kg i.p. alone) is given as “did not cause any mortality or toxicity symptoms”. Further, the body weight loss in data set [1] (EC31 30 or 60 mg/kg i.p. + PTX 12 mg/kg i.v.) is listed as no more than 15%. Besides, the EC50 on P-gp [2] (DOX Resistance, concentration that reduces IC50 of DOX by half) stood at 159 ± 21 nM; on P-gp [2] (PTX Resistance, concentration that reduces IC50 of PTX by half) it was 94 ± 21 nM; in the data set with P-gp [4] (read-out: EC50 for Reversing MDR, DOX Resistance, P388ADR, concentration that reduces IC50 of DOX by half) it was 186 ± 31 nM; in the data set with P-gp [4] (read-out: EC50 for Reversing MDR, PTX Resistance, P388ADR, concentration that reduces IC50 of PTX by half) it was 249 ± 18 nM. At P-gp [2] (reversing PTX resistance in LCC6MDR), the “fold lower EC50 than that of verapamil” value is listed as “about 4.7 fold”. The median survival in the data set on P388ADR leukemia (EC31 60 mg/kg i.p. + DOX 3 mg/kg i.p.) was determined as 21.5 days. The “P-gp transport substrate status” value on P-gp [3] is listed as “not a transport substrate of P-gp”.

These data come from PMC10002220, “In Vivo Reversal of P-Glycoprotein-Mediated Drug Resistance in a Breast Cancer Xenograft and in Leukemia Models Using a Novel, Potent, and Nontoxic Epicatechin EC31” (International Journal of Molecular Sciences, 2023).
